These results are taken from PMC11602115 (Journal of Medicinal Chemistry, 2017).

The nature of one data set: Mouse PK (iv and oral). It is filed as in vivo, male CD-1 mice.
The next data set in a line: Dog PK (iv and oral). Format: in vivo, Beagle dogs.
The next data set in a line: Monkey PK (iv and oral). Format: in vivo, cynomolgus monkeys.
The nature of data set [1]: iv PK in bile-duct cannulated (BDC) versus normal rats. Format: in vivo, rat. The note with it: iv administration. An excerpt:
One explanation for the prolonged exposure was the possibility of enterohepatic recirculation. […] A more definitive study was therefore conducted in bile-duct cannulated (BDC) rats.

The target of the next data set is T1, EP1 (Homo sapiens, UniProt P34995).
T1 sequence (P34995 1-402): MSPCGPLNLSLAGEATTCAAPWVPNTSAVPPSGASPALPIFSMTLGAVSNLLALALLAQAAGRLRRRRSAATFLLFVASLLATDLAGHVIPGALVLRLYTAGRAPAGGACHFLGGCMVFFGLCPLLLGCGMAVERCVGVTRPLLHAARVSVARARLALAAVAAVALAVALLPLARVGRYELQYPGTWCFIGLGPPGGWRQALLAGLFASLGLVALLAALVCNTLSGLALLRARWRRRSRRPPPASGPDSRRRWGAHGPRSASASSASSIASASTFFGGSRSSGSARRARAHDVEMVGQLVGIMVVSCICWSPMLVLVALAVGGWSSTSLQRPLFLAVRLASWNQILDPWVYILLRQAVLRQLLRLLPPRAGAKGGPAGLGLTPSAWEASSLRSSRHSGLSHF
Description: Radioligand binding, EP1 ([3H]-PGE2). The note with it: cloned human receptor; mean of two determinations. Also noted: purchased MDS Pharma (Taiwan) and CEREP (France), contract assays. Here is the method:
(§1) Additional (non-IP) receptor binding assays were carried out by MDS Pharma (Taiwan) and CEREP (France).

Another data set concerns human platelet. Put plainly: Inhibition of ADP-induced human platelet aggregation. It is filed as cell-based. The conditions noted are these: aggregation induced by 2.5 μM ADP, mean of at least two determinations. The method, then:
Such aggregated and activated platelets produce vasoactive substances such as thromboxane and serotonin that may cause harmful vasoconstriction and vascular remodeling.[13] […] This secondary assay was carried out as previously described,[14] with aggregation induced by 2.5 μM ADP in the presence or absence of IP receptor agonists.

The nature of data set [2]: Metabolite profile of 5c in the rat. It is filed as in vivo. The conditions noted are these: in vivo following dosing of 5g. The text has this:
A taurine-conjugated metabolite was subsequently identified in bile (M1, Figure 4), which was also observed in circulating plasma, although at much lower concentrations (∼5%) compared to parent. Further, two oxidized products, one of which was also a taurine-conjugate, were identified (M2 and M3) in plasma. […] It is known that taurine can be conjugated to bile acids and these conjugates may be hydrolyzed in the gut which allows for bile acid reabsorbtion.[19]

The target of a further data set is EP4 (Homo sapiens, UniProt P35408). Put plainly: Radioligand binding, EP4 ([3H]-PGE2). The conditions noted are these: cloned human receptor; mean of two determinations. Also noted: purchased MDS Pharma (Taiwan) and CEREP (France), contract assays. The method, then: as §1
The target in the next data set is IP (Homo sapiens, UniProt P43119). Put plainly: Radioligand binding, human IP ([3H]-iloprost). Also noted: expressed in transfected cells; host or cells: CHO-K1 (crude membranes). The conditions noted are these: cloned human receptor; read-out: Ki IP ([3H]-iloprost). Here is the method:
CHO-K1 cells expressing recombinant IP receptors were harvested, washed with ice-cold phosphate buffered saline, pH 7.4 (PBS), and then centrifuged at 48 000g for 20 min at 4 °C. The resulting cell pellet was then resuspended in ice-cold PBS containing 20 mM HEPES, pH 7.4, and 0.1 mM EDTA, homogenized on ice using a Brinkman Polytron, and centrifuged (48 000g for 20 min at 4 °C). This resuspension and centrifugation process was repeated one further time. Crude membrane pellets were stored at −80 °C until used for radioligand binding assays.
Assay incubations were terminated by rapid filtration through PerkinElmer GF/C filtration plates pretreated with 0.3% PEI, under vacuum pressure using a 96-well Packard filtration apparatus, followed by multiple washes with ice-cold wash buffer (PBS containing 20 mM HEPES and 0.1 mM EDTA, pH 7.4). Plates were then dried at 45 °C for a minimum of 2 h. Finally, 25 μL of BetaScint scintillation cocktail was added to each well and plates were counted in a Packard TopCount scintillation counter. In each competition study, test compounds were dosed at 10 concentrations with triplicate determinations at each test concentration.

What is called Cmax is the highest concentration seen after dosing. For orientation: Tmax means the time from dosing to the highest level. As a reminder, the half-life is the time in which the quantity being followed falls by half. The Ki is a measure of affinity in units of concentration, obtained from inhibition or displacement. By IC50 is commonly meant the concentration that inhibits the measured activity by half.

Sequence of EP4 (P35408 whole entry): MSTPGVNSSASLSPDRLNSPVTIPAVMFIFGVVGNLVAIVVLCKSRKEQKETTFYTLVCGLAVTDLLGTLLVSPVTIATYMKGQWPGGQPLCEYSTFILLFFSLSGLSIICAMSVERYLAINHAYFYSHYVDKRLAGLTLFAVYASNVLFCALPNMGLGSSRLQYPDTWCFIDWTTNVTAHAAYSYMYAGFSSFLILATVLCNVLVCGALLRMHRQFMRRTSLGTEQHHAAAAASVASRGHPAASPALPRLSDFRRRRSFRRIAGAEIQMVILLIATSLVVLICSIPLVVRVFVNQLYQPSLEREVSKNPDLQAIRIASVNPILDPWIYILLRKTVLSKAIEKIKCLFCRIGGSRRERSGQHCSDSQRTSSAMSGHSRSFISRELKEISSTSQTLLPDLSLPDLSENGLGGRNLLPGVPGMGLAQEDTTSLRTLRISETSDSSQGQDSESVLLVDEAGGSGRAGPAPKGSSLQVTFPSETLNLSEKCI
Sequence of IP (P43119 whole entry): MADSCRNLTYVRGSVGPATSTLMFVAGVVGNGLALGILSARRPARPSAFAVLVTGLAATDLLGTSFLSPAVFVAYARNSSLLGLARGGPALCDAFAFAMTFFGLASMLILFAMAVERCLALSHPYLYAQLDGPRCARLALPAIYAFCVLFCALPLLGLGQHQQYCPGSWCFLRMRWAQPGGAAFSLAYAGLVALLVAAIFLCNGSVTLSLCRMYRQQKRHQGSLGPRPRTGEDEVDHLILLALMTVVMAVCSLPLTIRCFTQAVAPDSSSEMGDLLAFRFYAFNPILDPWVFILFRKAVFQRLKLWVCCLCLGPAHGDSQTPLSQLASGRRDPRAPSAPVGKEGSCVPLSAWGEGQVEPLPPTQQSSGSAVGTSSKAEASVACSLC

As to `O=C(O)COC[C@H]1CC[C@H](COC(=O)N(c2ccccc2)c2ccc(Cl)cc2)CC1` [5c, Sodium 2-(((1r,4r)-4-(((4-Chlorophenyl)(phenyl)carbamoyloxy)methyl)cyclohexyl)methoxy)acetate], the T1/2 in “Mouse PK (iv and oral)” (iv […]) was 5.59 h; in “Mouse PK (iv and oral)” (po 9.49 mg/kg) it was 8.08 h; in the data set “Dog PK (iv and oral)” (iv 0.2 mg/kg) it was 3.54 ± 0.42 h; in the data set “Dog PK (iv and oral)” (po 0.2 mg/kg), 9.79 ± 0.94 h; in “Dog PK (iv and oral)” (po 2 mg/kg), 5.53 ± 1.48 h; in “Monkey PK (iv and oral)” (monkey, iv 0.1 mg/kg), 24.2 ± 2.1 h. Further, the T1/2 was found to be 17.5 ± 3.4 h in the data set “Monkey PK (iv and oral)” (monkey, po 0.1 mg/kg); 38.7 ± 21.3 h in the data set “Monkey PK (iv and oral)” (monkey, po 0.5 mg/kg). For the same compound, the “AUC0–inf” value in “Mouse PK (iv and oral)” (po 9.49 mg/kg) stood at 11.5 µg·h/mL; in the data set “Dog PK (iv and oral)” (iv 0.2 mg/kg), 1.05 ± 0.30 µg·h/mL; in “Dog PK (iv and oral)” (po 0.2 mg/kg) it was 0.719 ± 0.290 µg·h/mL; in “Dog PK (iv and oral)” (po 2 mg/kg), 9.75 ± 5.27 µg·h/mL; in “Monkey PK (iv and oral)” (monkey, iv 0.1 mg/kg) it was 0.145 ± 0.095 µg·h/mL; in the data set “Monkey PK (iv and oral)” (monkey, po 0.1 mg/kg), 0.161 ± 0.116 µg·h/mL. Also, the “AUC0–inf” value in “Monkey PK (iv and oral)” (monkey, po 0.5 mg/kg) amounted to 2.90 ± 1.35 µg·h/mL. The Cmax came to 4.94 µg/mL in the data set “Mouse PK (iv and oral)” (po 9.49 mg/kg); 0.327 ± 0.016 µg/mL in the data set “Dog PK (iv and oral)” (po 0.2 mg/kg); 3.44 ± 0.90 µg/mL in “Dog PK (iv and oral)” (po 2 mg/kg); 0.0121 ± 0.0036 µg/mL in “Monkey PK (iv and oral)” (monkey, po 0.1 mg/kg); 0.0928 ± 0.0297 µg/mL in the data set “Monkey PK (iv and oral)” (monkey, po 0.5 mg/kg). Also, the F in the data set “Mouse PK (iv and oral)” (po 9.49 mg/kg) was 83.4%; in “Dog PK (iv and oral)” (po 0.2 mg/kg), 68.4%; in the data set “Dog PK (iv and oral)” (po 2 mg/kg), 92.9%; in “Monkey PK (iv and oral)” (monkey, po 0.1 mg/kg), 98.7%; in the data set “Monkey PK (iv and oral)” (monkey, po 0.5 mg/kg), more than 100%. Moreover, the Tmax in “Mouse PK (iv and oral)” (po 9.49 mg/kg) was 15 min; in “Dog PK (iv and oral)” (po 0.2 mg/kg), 25 ± 8.64 min; in “Dog PK (iv and oral)” (po 2 mg/kg) it was 50 ± 17.3 min; in the data set “Monkey PK (iv and oral)” (monkey, po 0.1 mg/kg), 2.67 ± 2.89 h; in the data set “Monkey PK (iv and oral)” (monkey, po 0.5 mg/kg), 4.17 ± 3.18 h. Besides, the half-life in the data set “Dog PK (iv and oral)” (beagle, plasma, oral, 0.2 mg/kg, read-out: elimination half-life in dog (converted)) was 600 min; in “Monkey PK (iv and oral)” (cynomolgus monkey, plasma, oral, 0.1 mg/kg, read-out: elimination half-life in monkey (converted)), 1080 min. Further, the Clobs in “Dog PK (iv and oral)” (iv 0.2 mg/kg) is given as 0.202 ± 0.057 L h^–1 kg^–1; in the data set “Monkey PK (iv and oral)” (monkey, iv 0.1 mg/kg), 0.881 ± 0.579 L h^–1 kg^–1. In addition, the “reduction in the apparent plasma half-life in BDC rats” value in [1] (BDC versus normal rats) was determined as 3 fold. Moreover, the “concentrations in bile and urine compared to plasma” value in [1] (rat) is given as “negligible”. The Ki on EP1 is 9.6 µM.
`O=C(O)COC[C@H]1CC[C@H](COC(=O)N(c2ccccc2)c2cccc(F)c2)CC1` [5g, 2-(((1r,4r)-4-(((3-Fluorophenyl)(phenyl)carbamoyloxy)methyl)cyclohexyl)methoxy)acetic Acid] showed an IC50 in the data set with human platelet of 18 nM. Moreover, the “taurine conjugate metabolite in vivo” value in data set [2] is “no analogous conjugate was observed”. Further, the Ki at EP4 was determined as 1200 nM; on IP it was 7 nM.
